# According to patent US20030114388A1, “Auxiliary agents for ophthalmic operation” (priority 2000, published 2003):
# Tested on: intraoperative bleeding in a patient suffering from diabetic retinopathy with increased intrinsic coagulation tendency
# Experiment: Systemic drip infusion of argatroban during ophthalmic operation in a patient with diabetic retinopathy (Example 1)
# Format: in vivo
# Details: one patient
# Description: The present invention will be more specifically explained by referring to an example. However, as for as within the gist of the present invention, the present invention is not limited to the following example. As argatroban in the following example, a drug commercially available as the tradename “Slonnon” was used.
# The patient was a youth suffering from diabetic retinopathy with increased intrinsic coagulation tendency. […] Argatroban 10 mg as one ample was added to a drip infusion (specify ingredients, and a tradename and name of a manufacturing company if commercially available) and systemically administered to the patient from the beginning of the operation. The operation was completed for 2 hours.
# The above patient was a youth suffering from diabetic retinopathy with increased intrinsic coagulation tendency, and if treated under an ordinary operation, intraoperative bleedings would have expected to be easy clotting and caused operative difficulties.
# [1] = argatroban 10 mg drip infusion during operation
smiles,measurement,setting,value
"CC1CNc2c(cccc2S(=O)(=O)NC(CCCNC(=N)N)C(=O)N2CCC(C)CC2C(=O)O)C1 (mixture of isomers) [argatroban, (2R,4R)-4-methyl-1-[N^2((RS)-3-methyl-1,2,3,4-tetrahydro-8-quinolinesulfonyl)-L-arginyl]-2-piperidinecarboxylic acid monohydrate]",abnormal bleeding tendency,[1],No abnormal bleeding tendency was not observed
same,ease of treatment of intraoperative bleeding,[1],treatment of intraoperative bleeding became easier
same,removal of intraoperative bleedings,"argatroban 10 mg drip infusion, passive suction using a back flash needle",successfully removed by passive suction using a back flash needle
same,preretinal clotting mass formation from intraoperative bleedings,"argatroban 10 mg in drip infusion, systemic, from beginning of operation, 2 hour operation, treatment of fibrous vascular proliferating membrane",all of the bleedings did not give preretinal clotting mass
same,intraoperative iatrogenic tear,"during treatment of fibrous vascular proliferating membrane, argatroban 10 mg drip infusion",no intraoperative iatrogenic tear was caused
